In US11584775B2, “C4-modified oleanolic acid derivatives for inhibition of IL-17 and other uses” (REATA PHARMACEUTICALS, INC., priority 2015, dated 2023):

Experiments:
[1] = test system: hIL17; assay: IL-17 release from differentiated primary human T-cells (IL-17A HTRF assay); assay type: cell-based; conditions: inhibition of IL-17A levels; primary human CD4+ T cells differentiated into Th17 cells, 46-hour incubation
Procedure, shortened: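 Cryopreserved primary human CD4+ T cells were activated with anti-CD3/CD28 beads and driven to Th17 with TGF-β, IL-6, IL-23 and IL-1β in the presence of compound (2-500 nM or 4-1000 nM) for 46 h at 37° C. Supernatant IL-17A was quantified by HTRF against a standard curve and normalized to DMSO. IC50s came from variable-slope fits, with viability read by CyQuant.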

[2] = test system: NRF2; assay: AREc32 luciferase reporter assay; assay type: cell-based, human; conditions: EC2×: concentration required to increase GST ARE Luciferase reporter activity by 2-fold; AREc32 cells, 19 hours
Procedure, shortened: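 AREc32 cells (MCF-7 stably carrying eight rat GSTA2 ARE copies driving firefly luciferase) treated 19 h with compound (0.4–200 nM or 2–1000 nM), triplicate. Luminescence normalized to DMSO as fold-induction; variable-slope fit capped at 50-fold; EC2× = concentration giving 2-fold induction.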

[3] = test system: IFNγ-induced Nitric Oxide production; assay: Nitric oxide production assay in RAW 264.7 mouse macrophages; assay type: cell-based; conditions: RAW264.7, suppression of IFNγ-induced NO production normalized to cell viability (WST-1), RAW 264.7, 24 hours IFNγ
Procedure, shortened: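 Cells pre-treated 2 h with compound (0.4-200 nM or 2-1000 nM) in RPMI 1640 + 0.5% FBS, then stimulated with recombinant mouse IFNγ for 24 h at 37 °C. Nitrite measured by Griess reagent, viability by WST-1; IC50 from NO suppression normalized to viability and to DMSO/IFNγ controls.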

[4] = molecular target: T1, human RORγ (Homo sapiens, UniProt P51449); assay: RORγ assay (GAL4-RORγ hybrid luciferase reporter, inverse-agonist activity); assay type: cell-based; conditions: GAL4-RORγ hybrid reporter cells, 23 hours
T1 sequence (P51449 269-508 limits assumed): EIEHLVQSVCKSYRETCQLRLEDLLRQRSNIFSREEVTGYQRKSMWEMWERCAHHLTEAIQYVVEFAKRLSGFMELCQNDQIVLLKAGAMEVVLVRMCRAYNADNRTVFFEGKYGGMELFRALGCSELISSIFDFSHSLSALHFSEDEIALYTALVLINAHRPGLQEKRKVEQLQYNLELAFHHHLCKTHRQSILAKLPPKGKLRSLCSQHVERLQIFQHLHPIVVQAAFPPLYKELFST
Procedure, shortened: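 Human cell line expressing GAL4-DBD/RORγ hybrid with UAS-driven luciferase, treated in triplicate with compound (0.4–200 nM or 2–1000 nM) for 23 h at 37 °C. Luminescence normalized to DMSO; viability measured in parallel by multiplex assay. IC50 for RORγ and viability by variable-slope nonlinear regression.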

SMILES	IC50 [1]	IC50 [4]	EC2x: concentration giving 2-fold induction of ARE luciferase reporter [2]	IC50 [3]
Cc1nnc([C@]23CCC(C)(C)C[C@H]2[C@H]2C(=O)C=C4[C@@]5(C)C=C(C#N)C(=O)[C@@](C)(O)[C@@H]5CC[C@@]4(C)[C@]2(C)CC3)o1 [Compound T44, (4S,4aR,6aS,6bR,8aS,12aS,12bR,14bS)-4-hydroxy-4,6a,6b, 11,11,14b-hexamethyl-8a-(5-methyl-1,3,4-oxadiazol-2-yl)-3,13-dioxo-3,4,4a,5,6,6a,6b,7,8,8a,9,10,11,12,12a,12b,13,14b-octadecahydropicene-2-carbonitrile]	50 nM	236 nM	156 nM	72.8 nM
COC(=O)N[C@]12CCC(C)(C)C[C@H]1[C@H]1C(=O)C=C3[C@@]4(C)C=C(C#N)C(=O)[C@@](C)(O)[C@@H]4CC[C@@]3(C)[C@]1(C)CC2 [Compound T39, methyl ((4aS,6aR,6bS,8aR,9S,12aS,14aR,14bS)-11-cyano-9-hydroxy-2,2,6a,6b,9,12a-hexamethyl-10,14-dioxo-1,3,4,5,6,6a,6b,7,8,8a,9,10,12a,14,14a,14b-hexadecahydropicen-4a(2H)-yl)carbamate]	47 nM	364 nM	218 nM	91.2 nM
CN(C)C(=O)[C@]12CCC(C)(C)C[C@H]1[C@H]1C(=O)C=C3[C@@]4(C)C=C(C#N)C(=O)[C@@](C)(O)[C@@H]4CC[C@@]3(C)[C@]1(C)CC2 [Compound T30, (4aS,6aR,6bS,8aR,9S,12aS,14aR,14bS)-11-cyano-9-hydroxy-N,N,2,2,6a,6b,9,12a-octamethyl-10,14-dioxo-1,3,4,5,6,6a,6b,7,8,8a,9,10,12a,14,14a,14b-hexadecahydropicene-4a(2H)-carboxamide]	59 nM	164 nM	448 nM	173 nM
COC(=O)[C@]12CCC(C)(C)C[C@H]1[C@H]1C(=O)C=C3[C@@]4(C)C=C(C#N)C(=O)[C@@](C)(N)[C@@H]4CC[C@@]3(C)[C@]1(C)CC2 [Compound T11, methyl (4aS,6aR,6bS,8aR,9S,12aS,14aR,14bS)-9-amino-11-cyano-2,2,6a,6b,9,12a-hexamethyl-10,14-dioxo-1,3,4,5,6,6a,6b,7,8,8a,9,10,12a,14,14a,14b-hexadecahydropicene-4a(2H)-carboxylate]	75 nM	146 nM	477 nM	601 nM
CC1(C)CC[C@]2(C(=O)NCC(F)(F)F)CC[C@]3(C)[C@H](C(=O)C=C4[C@@]5(C)C=C(C#N)C(=O)C(C)(C)[C@@H]5CC[C@]43C)[C@@H]2C1 [Comparison Compound #2, reference compound]	40 nM	104 nM	53 nM	4.5 nM
COC(=O)[C@]1(C)C(=O)C(C#N)=C[C@]2(C)C3=CC(=O)[C@]45OC(=O)[C@@]6(CCC(C)(C)C[C@H]64)CC[C@@]5(C)[C@]3(C)CC[C@@H]12 [Compound T34, methyl (4S,4aR,6aR,6bS,8aS,12aR,12bS,14bS)-2-cyano-4,6a,6b, 11,11,14b-hexamethyl-3,13,16-trioxo-4,4a,5,6,6a,6b,7,8,10,11,12,12a,13,14b-tetradecahydro-3H,9H-12b,8a-(epoxymethano)picene-4-carboxylate]	46 nM	268 nM	377 nM	383 nM
COC(=O)[C@]12CCC(C)(C)C[C@H]1[C@H]1C(=O)C=C3[C@@]4(C)C=C(C#N)C(=O)[C@@](C)(C(=O)N(C)C)[C@@H]4CC[C@@]3(C)[C@]1(C)CC2 [Compound T14]	46 nM	139 nM	>1000 nM	164 nM

Now those with a lower IC50 [1], led by results:

IC50 [1]	IC50 [4]	SMILES	EC2x: concentration giving 2-fold induction of ARE luciferase reporter [2]	IC50 [3]
18 nM	608 nM	Cc1noc([C@]23CCC(C)(C)C[C@H]2[C@H]2C(=O)C=C4[C@@]5(C)[C@H]6O[C@@]6(C#N)C(=O)[C@@](C)(O)[C@@H]5CC[C@@]4(C)[C@]2(C)CC3)n1 [Compound T49, (1 aR,3S,3aR,5aS,5bR,7aS,11aS,11bR,13bS,13cR)-3-hydroxy-3,5a,5b, 10,10,13b-hexamethyl-7a-(3-methyl-1,2,4-oxadiazol-5-yl)-2,12-dioxo-3,3a,4,5,5a,5b,6,7,7a,8,9,10,11,11a,11b,12,13b,13c-octadecahydropiceno[1,2-b]oxirene-1a(2H)-carbonitrile]	244 nM	37.5 nM
37 nM	197 nM	CC1(C)CC[C@]2(C(=O)NCC(F)(F)F)CC[C@]3(C)[C@H](C(=O)C=C4[C@@]5(C)C=C(C#N)C(=O)[C@@](C)(O)[C@@H]5CC[C@]43C)[C@@H]2C1 [Compound T24, (4aS,6aR,6bS,8aR,9S,12aS,14aR,14bS)-11-cyano-9-hydroxy-2,2,6a,6b,9,12a-hexamethyl-10,14-dioxo-N-(2,2,2-trifluoroethyl)-1,3,4,5,6,6a,6b,7,8,8a,9,10,12a,14,14a,14b-hexadecahydropicene-4a(2H)-carboxamide]	406 nM	184 nM
37 nM	361 nM	COC(=O)[C@]12CCC(C)(C)C[C@H]1[C@H]1C(=O)C=C3[C@@]4(C)C=C(C#N)C(=O)[C@@](C)(COC(=O)c5ccccc5)[C@@H]4CC[C@@]3(C)[C@]1(C)CC2 [Compound T9, methyl (4aS,6aR,6bS,8aR,9R,12aS,14aR,14bS)-9-((benzoyloxy)methyl)-11-cyano-2,2,6a,6b,9,12a-hexamethyl-10,14-dioxo-1,3,4,5,6,6a,6b,7,8,8a,9,10,12a,14,14a,14b-hexadecahydropicene-4a(2H)-carboxylate]	962 nM	191 nM
16 nM	177 nM	COC(=O)[C@]12CCC(C)(C)C[C@H]1[C@@]1(O)C(=O)C=C3[C@@]4(C)C=C(C#N)C(=O)[C@@](C)(O)[C@@H]4CC[C@@]3(C)[C@]1(C)CC2 [Compound T38, methyl (4aS,6aS,6bR,8aR,9S,12aS,14aS,14bR)-11-cyano-9,14a-dihydroxy-2,2,6a,6b,9,12a-hexamethyl-10,14-dioxo-1,3,4,5,6,6a,6b,7,8,8a,9,10,12a,14,14a,14b-hexadecahydropicene-4a(2H)-carboxylate]	80 nM	57.2 nM
18 nM	169 nM	COC(=O)[C@]12CCC(C)(C)C[C@H]1[C@H]1C(=O)C=C3[C@@]4(C)C=C(C#N)C(=O)[C@](C)(C(=O)OC)[C@@H]4CC[C@@]3(C)[C@]1(C)CC2 [Compound T3, dimethyl (4R,4aR,6aS,6bR,8aS,12aS,12bR,14bS)-2-cyano-4,6a,6b, 11,11,14b-hexamethyl-3,13-dioxo-4,4a,5,6,6a,6b,7,8,9,10,11,12,12a,12b,13,14b-hexadecahydropicene-4,8a(3H)-dicarboxylate]	48 nM	22.3 nM
13 nM	115 nM	CC(=O)OC[C@]1(C)C(=O)C(C#N)=C[C@]2(C)C3=CC(=O)[C@@H]4[C@@H]5CC(C)(C)CC[C@]5(c5nc(C)no5)CC[C@@]4(C)[C@]3(C)CC[C@H]21 [Compound T46, ((4R,4aR,6aS,6bR,8aS,12aS,12bR,14bS)-2-cyano-4,6a,6b, 11,11,14b-hexamethyl-8a-(3-methyl-1,2,4-oxadiazol-5-yl)-3,13-dioxo-3,4,4a,5,6,6a,6b,7,8,8a,9,10,11,12,12a,12b,13,14b-octadecahydropicen-4-yl)methyl acetate]	366 nM	101 nM
15 nM	135 nM	COC(=O)[C@]12CCC(C)(C)C[C@H]1[C@@]1(O)C(=O)C=C3[C@@]4(C)C=C(C#N)C(=O)C(C)(C)[C@@H]4CC[C@@]3(C)[C@]1(C)CC2 [Comparison Compound #5, reference compound]	2 nM	1.6 nM
